This assay has as its system Monoclonal antibody (mAb). Put plainly: Binding affinity towards monoclonal antibody (MAb) using ELISA assay, activity expressed relative to WQMGHS=1.
For `CSCC[C@@H](NC(=O)[C@@H](CCC(N)=O)NC(=O)[C@H](N)Cc1c[nH]c2ccccc12)C(=O)NCC(=O)N[C@H](Cc1c[nH]cn1)C(=O)N[C@H](CO)C(=O)O`, the Relative activity amounted to 0.44.
The result for `CSCC[C@@H](NC(=O)[C@@H](CCC(N)=O)NC(=O)[C@H](N)Cc1c[nH]c2ccccc12)C(=O)NCC(=O)N[C@@H](Cc1c[nH]cn1)C(=O)N[C@@H](CO)C(=O)O` reads 1.89; that for `CSCC[C@@H](NC(=O)[C@@H](CCC(N)=O)NC(=O)[C@@H](N)Cc1c[nH]c2ccccc12)C(=O)NCC(=O)N[C@@H](Cc1c[nH]cn1)C(=O)N[C@@H](CO)C(=O)O`, 0.75.
Regarding `CSCC[C@H](NC(=O)[C@H](CCC(N)=O)NC(=O)[C@@H](N)Cc1c[nH]c2ccccc12)C(=O)NCC(=O)N[C@@H](Cc1c[nH]cn1)C(=O)N[C@H](CO)C(=O)O`, the Relative activity worked out at 0.64.
`CSCC[C@H](NC(=O)[C@H](CCC(N)=O)NC(=O)[C@@H](N)Cc1c[nH]c2ccccc12)C(=O)NCC(=O)N[C@H](Cc1c[nH]cn1)C(=O)N[C@@H](CO)C(=O)O` yielded a Relative activity of 0.85.
For the compound `CSCC[C@H](NC(=O)[C@H](CCC(N)=O)NC(=O)[C@H](N)Cc1c[nH]c2ccccc12)C(=O)NCC(=O)N[C@H](Cc1c[nH]cn1)C(=O)N[C@H](CO)C(=O)O`, the Relative activity is 1.
In turn, `CSCC[C@@H](NC(=O)[C@H](CCC(N)=O)NC(=O)[C@H](N)Cc1c[nH]c2ccccc12)C(=O)NCC(=O)N[C@@H](Cc1c[nH]cn1)C(=O)N[C@H](CO)C(=O)O` returned a Relative activity of 0.89.
Regarding `CSCC[C@@H](NC(=O)[C@H](CCC(N)=O)NC(=O)[C@H](N)Cc1c[nH]c2ccccc12)C(=O)NCC(=O)N[C@H](Cc1c[nH]cn1)C(=O)N[C@@H](CO)C(=O)O`, the Relative activity was found to be 1.16.
`CSCC[C@H](NC(=O)[C@@H](CCC(N)=O)NC(=O)[C@@H](N)Cc1c[nH]c2ccccc12)C(=O)NCC(=O)N[C@@H](Cc1c[nH]cn1)C(=O)N[C@@H](CO)C(=O)O`: the Relative activity is 0.82.
On to `CSCC[C@H](NC(=O)[C@H](CCC(N)=O)NC(=O)[C@H](N)Cc1c[nH]c2ccccc12)C(=O)NCC(=O)N[C@@H](Cc1c[nH]cn1)C(=O)N[C@H](CO)C(=O)O`, for which the Relative activity amounted to 0.83.
The compound `CSCC[C@@H](NC(=O)[C@H](CCC(N)=O)NC(=O)[C@@H](N)Cc1c[nH]c2ccccc12)C(=O)NCC(=O)N[C@H](Cc1c[nH]cn1)C(=O)N[C@@H](CO)C(=O)O` came in with a Relative activity of 1.31.
As to `CSCC[C@H](NC(=O)[C@@H](CCC(N)=O)NC(=O)[C@H](N)Cc1c[nH]c2ccccc12)C(=O)NCC(=O)N[C@H](Cc1c[nH]cn1)C(=O)N[C@@H](CO)C(=O)O`, the Relative activity stood at 1.39.
`CSCC[C@@H](NC(=O)[C@H](CCC(N)=O)NC(=O)[C@@H](N)Cc1c[nH]c2ccccc12)C(=O)NCC(=O)N[C@@H](Cc1c[nH]cn1)C(=O)N[C@@H](CO)C(=O)O` showed a Relative activity of 1.01.
Turning to `CSCC[C@H](NC(=O)[C@@H](CCC(N)=O)NC(=O)[C@@H](N)Cc1c[nH]c2ccccc12)C(=O)NCC(=O)N[C@@H](Cc1c[nH]cn1)C(=O)N[C@H](CO)C(=O)O`, the Relative activity came out at 0.86.
Regarding `CSCC[C@H](NC(=O)[C@@H](CCC(N)=O)NC(=O)[C@@H](N)Cc1c[nH]c2ccccc12)C(=O)NCC(=O)N[C@H](Cc1c[nH]cn1)C(=O)N[C@@H](CO)C(=O)O`, the Relative activity worked out at 0.64.
The result for `CSCC[C@H](NC(=O)[C@H](CCC(N)=O)NC(=O)[C@H](N)Cc1c[nH]c2ccccc12)C(=O)NCC(=O)N[C@@H](Cc1c[nH]cn1)C(=O)N[C@@H](CO)C(=O)O` reads 1.33; that for `CSCC[C@@H](NC(=O)[C@H](CCC(N)=O)NC(=O)[C@@H](N)Cc1c[nH]c2ccccc12)C(=O)NCC(=O)N[C@H](Cc1c[nH]cn1)C(=O)N[C@H](CO)C(=O)O`, 0.33.
The result for `CSCC[C@@H](NC(=O)[C@H](CCC(N)=O)NC(=O)[C@@H](N)Cc1c[nH]c2ccccc12)C(=O)NCC(=O)N[C@@H](Cc1c[nH]cn1)C(=O)N[C@H](CO)C(=O)O` reads 1.17; that for `CSCC[C@H](NC(=O)[C@@H](CCC(N)=O)NC(=O)[C@H](N)Cc1c[nH]c2ccccc12)C(=O)NCC(=O)N[C@@H](Cc1c[nH]cn1)C(=O)N[C@H](CO)C(=O)O`, 0.88.
Regarding `CSCC[C@@H](NC(=O)[C@@H](CCC(N)=O)NC(=O)[C@@H](N)Cc1c[nH]c2ccccc12)C(=O)NCC(=O)N[C@H](Cc1c[nH]cn1)C(=O)N[C@@H](CO)C(=O)O`, the Relative activity is 1.58.
With `CSCC[C@H](NC(=O)[C@H](CCC(N)=O)NC(=O)[C@H](N)Cc1c[nH]c2ccccc12)C(=O)NCC(=O)N[C@H](Cc1c[nH]cn1)C(=O)N[C@@H](CO)C(=O)O`, the Relative activity is 0.78.
Regarding `CSCC[C@H](NC(=O)[C@@H](CCC(N)=O)NC(=O)[C@H](N)Cc1c[nH]c2ccccc12)C(=O)NCC(=O)N[C@@H](Cc1c[nH]cn1)C(=O)N[C@@H](CO)C(=O)O`, the Relative activity is 0.6.
In the case of `CSCC[C@@H](NC(=O)[C@H](CCC(N)=O)NC(=O)[C@H](N)Cc1c[nH]c2ccccc12)C(=O)NCC(=O)N[C@@H](Cc1c[nH]cn1)C(=O)N[C@@H](CO)C(=O)O`, the Relative activity came out at 0.75.
In the case of `CSCC[C@@H](NC(=O)[C@@H](CCC(N)=O)NC(=O)[C@H](N)Cc1c[nH]c2ccccc12)C(=O)NCC(=O)N[C@H](Cc1c[nH]cn1)C(=O)N[C@@H](CO)C(=O)O`, the Relative activity is 0.9.
Turning to `CSCC[C@@H](NC(=O)[C@@H](CCC(N)=O)NC(=O)[C@@H](N)Cc1c[nH]c2ccccc12)C(=O)NCC(=O)N[C@H](Cc1c[nH]cn1)C(=O)N[C@H](CO)C(=O)O`, the Relative activity was 0.36.
Compound `CSCC[C@H](NC(=O)[C@H](CCC(N)=O)NC(=O)[C@@H](N)Cc1c[nH]c2ccccc12)C(=O)NCC(=O)N[C@@H](Cc1c[nH]cn1)C(=O)N[C@@H](CO)C(=O)O` gave a Relative activity of 1.
Consider `CSCC[C@H](NC(=O)[C@H](CCC(N)=O)NC(=O)[C@@H](N)Cc1c[nH]c2ccccc12)C(=O)NCC(=O)N[C@H](Cc1c[nH]cn1)C(=O)N[C@H](CO)C(=O)O`, for which the Relative activity was 1.06.
Take `CSCC[C@@H](NC(=O)[C@@H](CCC(N)=O)NC(=O)[C@@H](N)Cc1c[nH]c2ccccc12)C(=O)NCC(=O)N[C@@H](Cc1c[nH]cn1)C(=O)N[C@H](CO)C(=O)O`: the Relative activity was determined as 0.81.
Take `CSCC[C@@H](NC(=O)[C@@H](CCC(N)=O)NC(=O)[C@H](N)Cc1c[nH]c2ccccc12)C(=O)NCC(=O)N[C@@H](Cc1c[nH]cn1)C(=O)N[C@H](CO)C(=O)O`: the Relative activity turned out to be 0.43.

The record behind these values is ChEMBL document CHEMBL1127195, “Screening chemically synthesized peptide libraries for biologically-relevant molecules” (Bioorg Med Chem Lett, 1993).
